Assay results published in publication PMC6268855, “New Trifluoromethyl Triazolopyrimidines as Anti-Plasmodiumfalciparum Agents” (Molecules, 2012).

Legend:
Assay type in all cases: cell-based
[1] = system: Plasmodium falciparum chloroquine-resistant W2 clone; test: anti-HRP2 test on P. falciparum-infected erythrocytes; conditions: for IC50: Plasmodium falciparum, read-out: IC50 Plasmodium Falciparum Anti-HRP2; for activity class against P. falciparum: class by IC50
Method: (§1) Briefly, the parasites were kept as described at 37 °C in human erythrocytes (A^+) in complete medium (RPMI 1640 supplemented with 10% human sera blood group A^+, 2% glutamine, and 7.5% NaHCO3) either in Petri dishes in a candle jar or in 25-cm culture flasks in an environment containing a gas mixture atmosphere (3% O2, 5% CO2 and 91% N2). Before testing, the ring-stage parasites were synchronized by sorbitol; the suspension was adjusted for parasitemia and hematocrit as described below for each test used.
(§2) The effects of compounds against the W2 P. falciparum blood cultures were evaluated through incorporation of ^3H hypoxanthine (Perkin Elmer, Waltham, MA, USA) by the parasites. Alternatively, compound effects were also examined using monoclonal antibodies to a commercially available parasite histidine and alanine-rich protein (HRP2) (MPFM ICLLAB-55A®, MPFG55P ICLLAB®, Immunology Consultants Laboratory Inc. (ICL), Portland, OR, USA), as described previously. The [3H]-hypoxanthine assay was performed with 1% of parasitemia and 1% of hematocrit, and the level of isotope incorporation was read in a beta-counter (Perkin Elmer). The anti-HRP2 test was performed with 0.05% parasitemia and 1.5% hematocrit, and the quantification of protein was determined using a specific read at 450 nm in a spectrophotometer (SpectraMax340PC^384, Molecular Devices, Sunnyvale, CA, USA). Drug activities were expressed by the half-maximal inhibitory dose (IC50) compared to the drug-free controls and estimated using the curve-fitting software Origin 8.0 (OriginLab Corporation, Northampton, MA, USA).

[2] = system: Plasmodium falciparum chloroquine-resistant W2 clone; test: [3H]-hypoxanthine incorporation assay on P. falciparum-infected erythrocytes; conditions: read-out: IC50 Plasmodium Falciparum Hypoxanthine
Method: as §1, §2

[3] = system: human hepatoma cell line (HepG2); conditions: MTT, 24 h incubation
Method: For in vitro cytotoxicity experiments, the cell monolayer was trypsinized, washed with culture medium, distributed in a flat-bottomed 96-well plate (5 × 10^3 cells/well), and finally incubated for 18 h at 37 °C for cell adherence.
For cytotoxicity testing, we used the (3-(4,5-dimethylthiazol-2-yl)-2,5-diphenyltetrazolium bromide (MTT) assay, performed as described in the literature. The HepG2 cell line was incubated with 20 µL of the compounds in different concentrations (200–25 µg/mL) for 24 h in an atmosphere of 5% CO2 at 37 °C.
For the MTT assay, which evaluates mitochondrial viability, 20 µL of MTT solution (5 mg/mL) was added, and the plates were incubated for an additional 3 h. After incubation, the supernatant was carefully removed from the wells, followed by addition of 100 µL DMSO with thorough mixing. Optical densities at 570 and 630 nm (background) were determined by an ELISA reader.
Cell viability was expressed as the percentage of control absorbance obtained in untreated cells after subtracting the absorbance from appropriate background. Lastly, the minimum lethal dose for 50% of the cells (MLD50) was determined as previously described in the literature. The ratio between MLD50 and drug activity (IC50) in vitro was used to determine the selectivity index (SI).

[4] = Erythrocyte, W2 clone, 0.05% parasitemia, 1.5% hematocrit
[5] = Erythrocyte, W2 clone, 1% parasitemia, 1% hematocrit

| MDL50 HepG2 [3] [µM] | IC50 [1, 4] [µM] | IC50 [2, 5] [µM] | Compound | IC50 ([1]; W2, Erythrocyte) [µM] | IC50 ([2]; W2, Erythrocyte) [µM] | activity class against P. falciparum ([1]; W2 clone) |
| --- | --- | --- | --- | --- | --- | --- |
| 326 | 2.2 | – | Cc1cc(Nc2cccc3ccccc23)n2nc(C(F)(F)F)nc2n1 [Compound 4, 5-Methyl-7-(naphthalen-1-ylamine)-2-(trifluoromethyl)[1,2,4]triazolo[1,5-a]pyrimidine] | – | – | – |
| 425 | 0.023 ± 0.002 | – | Cc1cc(Nc2ccc3ccccc3c2)n2nc(C(F)(F)F)nc2n1 [Compound 5, 5-Methyl-7-(naphthalen-2-ylamine)-2-(trifluoromethyl)[1,2,4]triazolo[1,5-a]pyrimidine] | – | – | – |
| >682 | 3 ± 2 | 10.2 ± 5 | Cc1cc(Nc2ccccc2)n2nc(C(F)(F)F)nc2n1 [Compound 6, 5-Methyl-7-phenylamine-2-(trifluoromethyl)[1,2,4]triazolo[1,5-a]pyrimidine] | – | – | – |
| 373 | 1.83 ± 1.1 | 1.22 | Cc1cc(Nc2cccc(Cl)c2)n2nc(C(F)(F)F)nc2n1 [Compound 7, 7-(3-Chlorophenylamine)-5-methyl-2-(trifluoromethyl)[1,2,4]triazolo[1,5-a]pyrimidine] | – | – | – |
| >552 | 0.55 ± 0.66 | 0.11 ± 0.05 | Cc1cc(Nc2ccc(Cl)c(Cl)c2)n2nc(C(F)(F)F)nc2n1 [Compound 8, 7-(3,4-Dichlorophenylamine)-5-methyl-2-(trifluoromethyl)[1,2,4]triazolo[1,5-a]pyrimidine] | – | – | – |
| 320 | 2.7 ± 2.21 | 3.32 ± 1.1 | Cc1cc(Nc2ccc(Cl)cc2Cl)n2nc(C(F)(F)F)nc2n1 [Compound 9, 7-(2,4-Dichlorophenylamine)-5-methyl-2-(trifluoromethyl)[1,2,4]triazolo[1,5-a]pyrimidine] | – | – | – |
| 337 | > 69.9 | > 149 | Cc1cc(Nc2c(F)cccc2F)n2nc(C(F)(F)F)nc2n1 [Compound 10, 7-(2,6-Difluorophenylamine)-5-methyl-2-(trifluoromethyl)[1,2,4]triazolo[1,5-a]pyrimidine] | – | – | Inactive |
| >619 | 0.4 ± 0.09 | 1.5 ± 1.2 | COc1ccc(Nc2cc(C)nc3nc(C(F)(F)F)nn23)cc1 [Compound 11, 7-(4-Methoxyphenylamine)-5-methyl-2-(trifluoromethyl)[1,2,4]triazolo[1,5-a]pyrimidine] | – | – | – |
| 498 | 2.5 ± 0.05 | 0.36 ± 0.1 | COc1cc(Nc2cc(C)nc3nc(C(F)(F)F)nn23)cc(OC)c1 [Compound 12, 7-(3,5-Dimethoxyphenylamine)-5-methyl-2-(trifluoromethyl)[1,2,4]triazolo[1,5-a]pyrimidine] | – | – | – |
| 320 | 1.47 ± 0.11 | 0.83 ± 0.58 | Cc1cc(Nc2cc(Cl)cc(Cl)c2)n2nc(C(F)(F)F)nc2n1 [Compound 13, 7-(3,5-Dichlorophenylamine)-5-methyl-2-(trifluoromethyl)[1,2,4]triazolo[1,5-a]pyrimidine] | – | – | – |
| 515 | 3.84 ± 0.4 | 15.1 ± 10 | COc1cc(Nc2cc(C)nc3nc(C)nn23)cc(OC)c1 [Compound 14, 7-(3,5-Dimethoxyphenylamine)-2,5-dimethyl[1,2,4]triazolo[1,5-a]pyrimidine] | – | – | – |
| 415 | > 162 | 149 | Cc1cc(Nc2cc(Cl)cc(Cl)c2)n2nc(C)nc2n1 [Compound 15, 7-(3,5-Dichlorophenylamine)-2,5-dimethyl[1,2,4]triazolo[1,5-a]pyrimidine] | – | – | Inactive |
| 446 | 0.3 | 0.4 ± 0.06 | Cc1cc(Nc2ccc(C(F)(F)F)cc2)n2nc(C)nc2n1 [Compound 16, 2,5-Dimethyl-7-(4-(trifluoromethyl)phenylamine)-[1,2,4]triazolo[1,5-a]pyrimidine] | – | – | – |
| 269 | 12.3 | 23.4 | FC(F)(F)c1cc(Nc2cc(Cl)cc(Cl)c2)n2nc(C(F)(F)F)nc2n1 [Compound 17, 7-(3,5-Dichlorophenylamine)-2,5-bis(trifluoromethyl)[1,2,4]triazolo[1,5-a]pyrimidine] | – | – | – |
| 515 | 8.69 ± 0.46 | 10 | Cc1cc(NC2CCCCC2)n2nc(C(F)(F)F)nc2n1 [Compound 18, 7-Cyclohexylamine-5-methyl-2-(trifluoromethyl)[1,2,4]triazolo[1,5-a]pyrimidine] | – | – | – |
| >697 | > 174 | > 174 | Cc1cc(N2CCOCC2)n2nc(C(F)(F)F)nc2n1 [Compound 19] | – | – | Inactive |
| >666 | 39 ± 17 | 57 ± 13 | Cc1cc(N2CCN(C)CC2)n2nc(C(F)(F)F)nc2n1 [Compound 20, 5-Methyl-7-(4-methylpiperazin-1-yl)-2-(trifluoromethyl)[1,2,4]triazolo[1,5-a]pyrimidine] | – | – | Inactive |
| >738 | > 184 | > 184 | Cc1cc(N2CCCC2)n2nc(C(F)(F)F)nc2n1 [Compound 21, 5-Methyl-7-(pyrrolidin-1-yl)-2-(trifluoromethyl)[1,2,4]triazolo[1,5-a]pyrimidine] | – | – | Inactive |
| 394 | > 156 | > 170 | Cc1cc(Nc2ccccn2)n2nc(C(F)(F)F)nc2n1 [Compound 22, 5-Methyl-7-(pyridin-2-ylamine)-2-(trifluoromethyl)[1,2,4]triazolo[1,5-a]pyrimidine] | – | – | Inactive |
| <71 | 36.9 ± 11.4 | 31.2 ± 17 | Cc1cc(Nc2nc(C(F)(F)F)n[nH]2)n2nc(C(F)(F)F)nc2n1 [Compound 23, 5-Methyl-2-(trifluoromethyl)-7-(5-(trifluoromethyl)-3-amine-4H-1,2,4-triazolyl)[1,2,4]triazolo[1,5-a]pyrimidine] | – | – | Inactive |
| >746 | 2.1 | – | Cc1cc(-n2cccn2)n2nc(C(F)(F)F)nc2n1 [Compound 24, 5-Methyl-7-(1H-pyrazol-1-yl)-2-(trifluoromethyl)[1,2,4]triazolo[1,5-a]pyrimidine] | – | – | – |
| <93 | 21 ± 2 | 15 ± 0.7 | Cc1cc(-n2ccnc2)n2nc(C(F)(F)F)nc2n1 [Compound 25, 7-(1H-Imidazol-1-yl)-5-methyl-2-(trifluoromethyl)[1,2,4]triazolo[1,5-a]pyrimidine] | – | – | – |
| <93 | 29.7 | 33.5 ± 14.9 | Cc1cc(-n2cncn2)n2nc(C(F)(F)F)nc2n1 [Compound 26, 5-Methyl-7-(1H-1,2,4-triazol-1-yl)-2-(trifluoromethyl)[1,2,4]triazolo[1,5-a]pyrimidine] | – | – | Inactive |
| >749 | 97.4 ± 22.5 | 78.7 ± 7.49 | Cc1cc(-n2cccc2)n2nc(C(F)(F)F)nc2n1 [Compound 27, 5-Methyl-7-(1H-pyrrol-1-yl)-2-(trifluoromethyl)[1,2,4]triazolo[1,5-a]pyrimidine] | – | – | Inactive |
| >689 | > 172 | > 172 | CCN(CC)CCCC(C)Nc1cc(C)nc2ncnn12 (stereo not shown) [Compound 28, 5-Methyl-7-N'-(N,N-diethylpentane-1,4-diamine)[1,2,4]triazolo[1,5-a]pyrimidine] | – | – | Inactive |

| Compound | MDL50 HepG2 [3] [µM] | IC50 [1, 4] [µM] | IC50 [2, 5] [µM] | IC50 ([1]; W2, Erythrocyte) [µM] | IC50 ([2]; W2, Erythrocyte) [µM] | activity class against P. falciparum ([1]; W2 clone) |
| --- | --- | --- | --- | --- | --- | --- |
| CCN(CC)CCCC(C)Nc1ccnc2cc(Cl)ccc12 (stereo not shown) [Chloroquine, reference compound] | 490 | – | – | 0.22 | 0.23 | – |
